Reference: ChEMBL document CHEMBL4308841, “Synthesis, in vitro antiproliferative activity, and kinase inhibitory effects of pyrazole-containing diarylureas and diarylamides” (Eur J Med Chem, 2018)

Tests used:
Type in all cases: functional
[1] = tested on: T47D; assay: Growth inhibition of human T47D cells assessed as cell growth at 10 uM incubated for 48 hrs by sulforhodamine B assay relative to control; settings: read-out: Activity
[2] = tested on: MDA-MB-231; assay: Growth inhibition of human MDA-MB-231 cells assessed as cell growth at 10 uM incubated for 48 hrs by sulforhodamine B assay relative to control; settings: MDA-MB-231, 48 h, read-out: Activity
[3] = tested on: ACHN; assay: Growth inhibition of human ACHN cells assessed as cell growth at 10 uM incubated for 48 hrs by sulforhodamine B assay relative to control; settings: read-out: Activity
[4] = tested on: MDA-MB-435; assay: Growth inhibition of human MDA-MB-435 cells assessed as cell growth at 10 uM incubated for 48 hrs by sulforhodamine B assay relative to control; settings: MDA-MB-435, 48 h, read-out: Activity
[5] = tested on: RXF 393; assay: Growth inhibition of human RXF393 cells assessed as cell growth at 10 uM incubated for 48 hrs by sulforhodamine B assay relative to control; settings: RXF 393, 48 h, read-out: Activity
[6] = tested on: MDA-MB-468; assay: Growth inhibition of human MDA-MB-468 cells assessed as cell growth at 10 uM incubated for 48 hrs by sulforhodamine B assay relative to control; settings: MDA-MB-468, 48 h, read-out: Activity
[7] = tested on: SF-295; assay: Growth inhibition of human SF295 cells assessed as cell growth at 10 uM incubated for 48 hrs by sulforhodamine B assay relative to control; settings: SF-295, 48 h, read-out: Activity
[8] = tested on: KM12; assay: Growth inhibition of human KM12 cells assessed as cell growth at 10 uM incubated for 48 hrs by sulforhodamine B assay relative to control; settings: KM12, 48 h, read-out: Activity
[9] = tested on: SF-268; assay: Growth inhibition of human SF268 cells assessed as cell growth at 10 uM incubated for 48 hrs by sulforhodamine B assay relative to control; settings: SF-268, 48 h, read-out: Activity
[10] = tested on: Hs-578T; assay: Growth inhibition of human Hs578T cells assessed as cell growth at 10 uM incubated for 48 hrs by sulforhodamine B assay relative to control; settings: read-out: Activity
[11] = tested on: OVCAR-3; assay: Growth inhibition of human OVCAR3 cells assessed as cell growth at 10 uM incubated for 48 hrs by sulforhodamine B assay relative to control; settings: OVCAR-3, 48 h, read-out: Activity
[12] = tested on: SW-620; assay: Growth inhibition of human SW620 cells assessed as cell growth at 10 uM incubated for 48 hrs by sulforhodamine B assay relative to control; settings: SW-620, 48 h, read-out: Activity
[13] = tested on: SR; assay: Growth inhibition of human SR cells assessed as cell growth at 10 uM incubated for 48 hrs by sulforhodamine B assay relative to control; settings: read-out: Activity
[14] = tested on: OVCAR-4; assay: Growth inhibition of human OVCAR4 cells assessed as cell growth at 10 uM incubated for 48 hrs by sulforhodamine B assay relative to control; settings: OVCAR-4, 48 h, read-out: Activity
[15] = tested on: LOX IMVI; assay: Growth inhibition of human LOXIMVI cells assessed as cell growth at 10 uM incubated for 48 hrs by sulforhodamine B assay relative to control; settings: read-out: Activity
[16] = tested on: NCI-H226; assay: Growth inhibition of human NCI-H226 cells assessed as cell growth at 10 uM incubated for 48 hrs by sulforhodamine B assay relative to control; settings: NCI-H226, 48 h, read-out: Activity
[17] = tested on: BT-549; assay: Growth inhibition of human BT549 cells assessed as cell growth at 10 uM incubated for 48 hrs by sulforhodamine B assay relative to control; settings: BT-549, 48 h, read-out: Activity
[18] = tested on: SNB-19; assay: Growth inhibition of human SNB19 cells assessed as cell growth at 10 uM incubated for 48 hrs by sulforhodamine B assay relative to control; settings: SNB-19, 48 h, read-out: Activity
[19] = tested on: SNB-75; assay: Growth inhibition of human SNB75 cells assessed as cell growth at 10 uM incubated for 48 hrs by sulforhodamine B assay relative to control; settings: SNB-75, 48 h, read-out: Activity
[20] = tested on: M14; assay: Growth inhibition of human M14 cells assessed as cell growth at 10 uM incubated for 48 hrs by sulforhodamine B assay relative to control; settings: M14, 48 h, read-out: Activity
[21] = tested on: U-251; assay: Growth inhibition of human U251 cells assessed as cell growth at 10 uM incubated for 48 hrs by sulforhodamine B assay relative to control; settings: U-251, 48 h, read-out: Activity
[22] = tested on: UACC-62; assay: Growth inhibition of human UACC62 cells assessed as cell growth at 10 uM incubated for 48 hrs by sulforhodamine B assay relative to control; settings: UACC-62, 48 h, read-out: Activity
[23] = tested on: K562; assay: Growth inhibition of human K562 cells assessed as cell growth at 10 uM incubated for 48 hrs by sulforhodamine B assay relative to control; settings: K562, 48 h, read-out: Activity
[24] = tested on: CAKI-1; assay: Growth inhibition of human Caki1 cells assessed as cell growth at 10 uM incubated for 48 hrs by sulforhodamine B assay relative to control; settings: CAKI-1, 48 h, read-out: Activity
[25] = tested on: OVCAR-5; assay: Growth inhibition of human OVCAR5 cells assessed as cell growth at 10 uM incubated for 48 hrs by sulforhodamine B assay relative to control; settings: OVCAR-5, 48 h, read-out: Activity
[26] = tested on: SK-OV-3; assay: Growth inhibition of human SKOV3 cells assessed as cell growth at 10 uM incubated for 48 hrs by sulforhodamine B assay relative to control; settings: SK-OV-3, 48 h, read-out: Activity
[27] = tested on: HCC 2998; assay: Growth inhibition of human HCC2998 cells assessed as cell growth at 10 uM incubated for 48 hrs by sulforhodamine B assay relative to control; settings: HCC 2998, 48 h, read-out: Activity
[28] = tested on: HL-60(TB); assay: Growth inhibition of human HL-60(TB) cells assessed as cell growth at 10 uM incubated for 48 hrs by sulforhodamine B assay relative to control; settings: HL-60, 48 h, read-out: Activity
[29] = tested on: NCI-H460; assay: Growth inhibition of human NCI-H460 cells assessed as cell growth at 10 uM incubated for 48 hrs by sulforhodamine B assay relative to control; settings: NCI-H460, 48 h, read-out: Activity
[30] = tested on: IGROV-1; assay: Growth inhibition of human IGROV1 cells assessed as cell growth at 10 uM incubated for 48 hrs by sulforhodamine B assay relative to control; settings: IGROV-1, 48 h, read-out: Activity
[31] = tested on: RPMI-8226; assay: Growth inhibition of human RPMI8226 cells assessed as cell growth at 10 uM incubated for 48 hrs by sulforhodamine B assay relative to control; settings: RPMI-8226, 48 h, read-out: Activity
[32] = tested on: SF-539; assay: Growth inhibition of human SF539 cells assessed as cell growth at 10 uM incubated for 48 hrs by sulforhodamine B assay relative to control; settings: SF-539, 48 h, read-out: Activity
[33] = tested on: HCT-116; assay: Growth inhibition of human HCT116 cells assessed as cell growth at 10 uM incubated for 48 hrs by sulforhodamine B assay relative to control; settings: HCT-116, 48 h, read-out: Activity

For `COc1cc(Cl)cc(-c2nn(-c3cccc(NC(=O)Nc4ccc(Cl)c(C(F)(F)F)c4)c3)cc2-c2ccncc2)c1`, the growth at 10 µM [1] was 8.1%, the growth at 10 µM [2] was -30.8% and the growth at 10 µM [3] was 8.78%. It also gave a growth at 10 µM [4] of -16.8%, a growth at 10 µM [5] of -29.9% and a growth at 10 µM [6] of -14.4%. The growth at 10 µM [7] was -7.48%, the growth at 10 µM [8] was 9.1% and the growth at 10 µM [9] was 22.9%. The growth at 10 µM [10] was 14.6%, the growth at 10 µM [11] was -22.6% and the growth at 10 µM [12] was 12.7%. The growth at 10 µM [13] was -27.5%, the growth at 10 µM [14] was 16.6% and the growth at 10 µM [15] was 4.81%. It also gave a growth at 10 µM [16] of -2.82%, a growth at 10 µM [17] of 9.81% and a growth at 10 µM [18] of 28.1%. For the same compound, the growth at 10 µM [19] was 14.5%, the growth at 10 µM [20] was 3.99% and the growth at 10 µM [21] was -48.3%. It also gave a growth at 10 µM [22] of 6.62%, a growth at 10 µM [23] of 8.93% and a growth at 10 µM [24] of 9.38%. For the same compound, the growth at 10 µM [25] was 19.2%, the growth at 10 µM [26] was 11.9% and the growth at 10 µM [27] was 18.1%. The growth at 10 µM [28] was -9.59%, the growth at 10 µM [29] was 2.76% and the growth at 10 µM [30] was 30.2%. The growth at 10 µM [31] was -29.1%, the growth at 10 µM [32] was -1.17% and the growth at 10 µM [33] was 3.39%.

With `O=C(Nc1cccc(-n2cc(-c3ccncc3)c(-c3cc(O)cc(Cl)c3)n2)c1)c1cc(C(F)(F)F)cc(C(F)(F)F)c1` the growth at 10 µM [1] was 26.3%, the growth at 10 µM [2] was -34.6% and the growth at 10 µM [3] was 37.7%. It also gave a growth at 10 µM [4] of 45.6%, a growth at 10 µM [5] of -10.3% and a growth at 10 µM [6] of 31.2%. For the same compound, the growth at 10 µM [7] was 15%, the growth at 10 µM [8] was 21.2% and the growth at 10 µM [9] was 69.3%. It also gave a growth at 10 µM [10] of 65.9%, a growth at 10 µM [11] of 15.2% and a growth at 10 µM [12] of 61%. It also gave a growth at 10 µM [13] of 3.15%, a growth at 10 µM [14] of 59.6% and a growth at 10 µM [15] of 10.5%. It also gave a growth at 10 µM [16] of 96%, a growth at 10 µM [17] of 73.4% and a growth at 10 µM [18] of 63.1%. The growth at 10 µM [19] was 52.7%, the growth at 10 µM [20] was 24.5% and the growth at 10 µM [21] was 37.2%. For the same compound, the growth at 10 µM [22] was 69.3%, the growth at 10 µM [23] was 20.4% and the growth at 10 µM [24] was 58.5%. It also gave a growth at 10 µM [25] of 70.7%, a growth at 10 µM [26] of 68.8% and a growth at 10 µM [27] of 28.9%. For the same compound, the growth at 10 µM [28] was 21.4%, the growth at 10 µM [29] was 19.9% and the growth at 10 µM [30] was 73%. For the same compound, the growth at 10 µM [31] was 32.1%, the growth at 10 µM [32] was 75.5% and the growth at 10 µM [33] was 24.6%.
